Reference: paper PMC6163981, “Novel and Selective Rhipicephalus microplus Triosephosphate Isomerase Inhibitors with Acaricidal Activity” (Veterinary Sciences, 2018)
Several values for one entry are separate records, joined by “and”; a condition that tells them apart may be missing. Equal values may be shown once. Entries after “also recorded” stand apart in the source; their conditions may differ. Read-outs that look alike come from different tables or passages of the source.

How the values were obtained:
[1] = target: RmTIM (TIM from R. microplus) (Rhipicephalus microplus, UniProt A8B3A8); test: biochemical
[2] = tested on: mammalian TIMs (rabbit and human); test: Mammalian TIM inhibition (rabbit and human, summarised); assay type: biochemical; details: 100 µM
[3] = target: T1, Homo sapiens TIM (HsTIM, HmTIM [sic] in Table 1) (Homo sapiens, UniProt P60174); test: Human TIM inhibition (selectivity); assay type: biochemical
T1 construct: made in house; host or cells: E. coli

[4] = tested on: mice (strain B6D2F1); details: male, B6D2F1, mouse, in vivo
[5] = tested on: BME26 embryonic cells; test: MTT viability assay on BME26 embryonic cells; assay type: cell-based, Rhipicephalus microplus; details: for IC50 / viability at 100 µM: Rhipicephalus microplus, 24 h, BME26, MTT; for IC50: read-out: IC50 in BME26 cells (In vitro anti-R. microplus); for viability at 100 µM: read-out: cell viability at 100 µM
[6] = target: Rabbit TIM (RbTIM) (Oryctolagus cuniculus, UniProt P00939); test: Rabbit TIM inhibition (selectivity); assay type: biochemical
[7] = parameters: method as in PMID 22803666; details: previous work; cited from earlier work
[8] = tested on: Trypanosoma cruzi TIM (TcTIM); details: previously obtained; cited from earlier work
[9] = tested on: mice; details: cited from earlier work
[10] = tested on: BME26 embryonic cells; parameters: method as in PMID 24956999, PMID 22036897; details: widely used acaricide, comparison; cited from earlier work

Chain of Rabbit TIM (RbTIM) (P00939 2-249 limits assumed): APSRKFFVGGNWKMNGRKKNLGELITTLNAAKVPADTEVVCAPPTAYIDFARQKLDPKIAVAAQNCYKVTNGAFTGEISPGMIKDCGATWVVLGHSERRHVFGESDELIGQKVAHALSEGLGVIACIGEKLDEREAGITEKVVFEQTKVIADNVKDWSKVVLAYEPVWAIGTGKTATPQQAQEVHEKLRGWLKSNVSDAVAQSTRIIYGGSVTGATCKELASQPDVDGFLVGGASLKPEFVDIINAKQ
T1 sequence (P60174 whole entry): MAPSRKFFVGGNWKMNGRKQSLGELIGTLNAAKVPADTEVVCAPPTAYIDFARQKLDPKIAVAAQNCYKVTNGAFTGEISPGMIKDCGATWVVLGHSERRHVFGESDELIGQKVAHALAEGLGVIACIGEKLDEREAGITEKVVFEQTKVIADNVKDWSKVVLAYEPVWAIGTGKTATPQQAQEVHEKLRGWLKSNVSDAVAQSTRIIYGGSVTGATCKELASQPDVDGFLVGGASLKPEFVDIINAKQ
Chain of RmTIM (TIM from R. microplus) (A8B3A8 1-249): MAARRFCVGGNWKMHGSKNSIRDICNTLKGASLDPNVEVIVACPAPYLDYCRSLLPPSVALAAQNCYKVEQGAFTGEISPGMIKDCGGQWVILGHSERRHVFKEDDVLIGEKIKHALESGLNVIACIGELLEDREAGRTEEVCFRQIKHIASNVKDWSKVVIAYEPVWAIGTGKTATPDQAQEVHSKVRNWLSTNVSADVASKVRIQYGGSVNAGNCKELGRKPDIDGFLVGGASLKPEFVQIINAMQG

Work on `CC1(C)[N+]([O-])=c2ccc(/C=C/c3ccccc3)cc2=[N+]1[O-]` [Compound 39] yielded an IC50 ([1]; read-out: IC50 (µM) RmTIM) of 50 to 100 µM.
With `O=C1C(=Cc2ccc([N+](=O)[O-])cc2)C(=O)N(Cc2ccccc2)S(=O)(=O)N1Cc1ccccc1` [Compound 50] the “Mammalian Triosephosphate isomerase inhibition” value [2] was “did not affect”, the IC50 ([1]; read-out: IC50 (µM) RmTIM) was ~50 µM and 50 µM and the inhibition at 100 µM [3] was 0%. The “Toxicology: LD50” value [4] was 3 mmol/kg body weight in mice, the IC50 [5] was 71 ± 8 µM and the viability at 100 µM ([5]; 100 µM) was 42%. The inhibition at 100 µM [6] was 0%.
`O=C1C(=Cc2ccc([N+](=O)[O-])o2)C(=O)N(Cc2ccccc2)S(=O)(=O)N1Cc1ccccc1` [Compound 52] gave an IC50 ([1]; read-out: IC50 (µM) RmTIM) of 50 to 100 µM.
Compound `O=S(=O)(NCCc1ccccc1)NCCc1ccccc1` [Compound 62] has an IC50 ([1]; IC50 (µM) RmTIM) of 50 to 100 µM.
`C=CCn1c(-c2ccc(OC)cc2)cs/c1=N/N=C/c1ccc([N+](=O)[O-])s1` [Compound 70] showed an IC50 ([1]; read-out: IC50 (µM) RmTIM) of roughly 100 µM.
Compound `Clc1ccc(-c2csc(N/N=C/C=C/c3ccco3)n2)cc1` [Compound 81] has an IC50 ([1]; read-out: IC50 (µM) RmTIM) of 50 to 100 µM.
For `O=C(N/N=C/C=C/c1ccc([N+](=O)[O-])o1)Nc1ccc2ccccc2c1` [Compound 98], the “Mammalian Triosephosphate isomerase inhibition” value [2] was “did not affect”, the IC50 ([1]; read-out: IC50 (µM) RmTIM) was ~50 µM and 50 µM and the inhibition at 100 µM [3] was 14%. The “Toxicology: LD50” value [4] was 3 mmol/kg body weight in mice, the IC50 [5] was 67 ± 4 µM and the viability at 100 µM ([5]; 100 µM) was 40%. For the same compound, the inhibition at 100 µM [6] was 21%.
In the case of `O=[N+]([O-])c1ccc(/C=C/C=N/NC(=S)Nc2ccccc2)o1` [Compound 99], the IC50 ([1]; read-out: IC50 (µM) RmTIM) is reported as roughly 100 µM.
`O=C(N/N=C/c1c(-c2ccccc2)no[n+]1[O-])c1cnn(-c2ccccc2)c1` [Compound 134] showed an IC50 ([1]; read-out: IC50 (µM) RmTIM) of roughly 100 µM.
`Cc1c(C=O)no[n+]1[O-]` [Compound 136] gave an IC50 ([1]; read-out: IC50 (µM) RmTIM) of roughly 100 µM.
With `Cc1c(CNc2ccc3ccccc3c2)no[n+]1[O-]` [Compound 146] the IC50 ([1]; read-out: IC50 (µM) RmTIM) was roughly 100 µM.
In the case of `Cc1ccc(-c2nsc(=O)[nH]2)cc1` [Compound 161], the IC50 ([1]; read-out: IC50 (µM) RmTIM) is reported as 25 ± 3 µM, the inhibition at 100 µM [3] is reported as 28% and the “% Inhibition at 100 µM HmTIM” value ([3]; 100 µM) is reported as “slight inhibitory activity”. The “penetration of biological membranes” value [7] was “cannot penetrate biological membranes”, the “effect on BME26 cells” value ([5]; MTT, 100 µM) was “did not have any effect; also recorded: no activity” and the viability at 100 µM ([5]; 100 µM) was 100%. The inhibition at 100 µM [6] was 0% and the IC50 [8] was 4 µM.
With `C=CCNC(=S)N/N=C/c1ccc2c(c1)[n+]([O-])c(C)c(C)[n+]2[O-]` [Compound 179] the IC50 ([1]; read-out: IC50 (µM) RmTIM) was roughly 100 µM.
For `Cc1ccc(/C=C/C=N/N2CCN(C/C=C/c3ccccc3)CC2)o1` [Compound 222], the IC50 ([1]; read-out: IC50 (µM) RmTIM) was 50 to 100 µM.
In the case of `N#Cc1nn(-c2c(Cl)cc(C(F)(F)F)cc2Cl)c(N)c1[S+]([O-])C(F)(F)F` (centres unmarked) [fipronil], the “acute oral LD50” value [9] is listed as 91 mg/kg.
In the case of ivermectin, the IC50 [10] is listed as 3 µM.
